Values after ≈ are worked out from the molar mass of the structure shown. Where two headings read alike, the source gives them in different places.
Assays:
female hairless mice = type: in vivo; settings: for Death/Total: animals died from a group of 5; for % Weight Change: end of 14 day test or at death; for Flaking/scaling grade: scale 0 to +5
Procedure: Specifically, tests to determine skin toxicity were performed on certain examplary compounds in accordance with the present invention, and on certain analogous compounds which lack the R3 substituent in accordance with Formula 1, 2 or 3. A “Two Week Acute Skin Toxicity Study of Multiple Topical Applications in Female Hairless Mice” is conducted as follows: a daily dose (expressed in nanomoles) of the “test compound” is applied to the skin on the back of hairless mice (usually a test group of 5 mice for a given compound). The daily dose of the test compound is applied for 5 consecutive days, followed by two days when the test compound is not administered, and is thereafter administered again for 4 more consecutive days. On the 14th day the test animals if still alive, are sacrificed to perform certain studies and tests. In the meanwhile certain tests and observations are made on a daily basis with respect to body weight and skin condition. Skin condition is graded as “flaking/scaling” and “abrasion” on a scale of 0 to +5 where the various numbers correspond to the following observations.
Results of these tests are summarized in Table 3, where daily dose is expressed in nanomoles, weight loss of the test animals is in percentages at the end of the 14 day test period, or at the time the test animal expired, and mortality is expressed with the number of animals which died from a group of 5.

gestating ICR mice = experiment: in vivo teratology study, single oral dose on day 11 of gestation; parameters: species or system mouse
Procedure: The methodology of the study is described as follows:
ICR mice (Ace Animals, Boyertown, Pa.) were used. Mature male and virgin female ICR mice were housed in environmentally controlled rooms and acclimatized to a 12 hour light/dark cycle (light cycle 6 A.M. to 6 P.M.) for 2 weeks prior to use. All animals were maintained on Purina Lab Chow and tap water ad libitum. A group of 3-4 females was caged with a single male of proven fertility for 4 hours. Presence of a vaginal plug immediately afterward was regarded as evidence of successful mating, and this day was designated as day 0 of gestation.
[…] All animals were killed by cervical dislocation under mild ether anesthesia on day 17 of gestation. Upon laparotomy, the fetuses were examined for external malformations and weighed; one-half of each litter was then fixed in 95% ethanol and processed for staining of the skeleton by the rapid, alizarin red-S dye method. These preparations were examined under a dissection microscope to screen for abnormalities in the axial and the appendicular skeleton. The other half of each litter was fixed in Bouin's solution and examined by freehand razor serial sectioning to screen for anomalies of the brain, face, and palate.
Differences in dose-related incidence of malformations and resorptions were assessed by computing percentages of affected conceptuses among total implantation sites. The groups were compared statistically by a method based on Student's t-tests of arcs in square root transformed percentages. Values at 0.05 probability level were considered significant. The median effective dose was calculated by logarithmic curve fitting of the dose-response data.

[1] = test system: tissue transglutaminase (tTGASE) in HL-60 cells; experiment: Tissue Transglutaminase Assay (tTGASE) in HL-60 Cells; type: cell-based; settings: FIGS. 6-9
Procedure: Other assays in which the retinoid like activity of the compounds used in accordance with the invention are confirmed are the HL-60 transglutaminase induction and HL-60 differentiation assay, the procedures of which are described as follows.
HL-60 cells were grown as a suspension culture in T-162 cm^2 flasks in serum-free RPMI 1640 medium supplemented with insulin (5 μg/ml), transferrin (5 μg/ml), and selenium (3 nM). The cells (1×10^6 cells/well, in 6-well dishes) were treated with serial dilutions of test compounds in the above RPMI 1640 medium which was additionally supplemented with […] dibutyryl cyclic adenosine monophosphate, a component found to be necessary for efficient differentiation of the cells. Ethanol was used in the vehicle control cultures. After 1 days of incubation at 37° C. in a 7.5% CO2 incubator, the cells were collected in a set of tubes and pelleted by centrifugation. The cells were lyzed in a buffer containing 20 mM Tris-HCl, pH 7.5, 1 mM EDTA, and 0.5% Triton X-100. An aliquot of the cell lysate was assayed for tTGASE activity in a reaction mixture containing 20 mM Tris-HCl, pH 7.5, 5 mM CaCl2, 2 mg/ml dimethylcasein, 15 mM B-mercaptoethanol and 50 μCi/ml [2,3-^3H] putrescine dihydrochloride. The reaction was carried out for 60 minutes in a 37° C. shaking water bath. The reaction was stopped by an addition of 10% trichloroacetic acid containing 0.1% putrescein. An aliquot of the stopped reaction mixture was spotted on Whatman 3 MM filter discs. The filter discs, along with the control blank filter discs, were washed twice with 5% trichloroacetic acid containing 0.1% putrescein and twice with methanol. After drying under a heat lamp, the radioactivity in the filter discs was determined by scintillation counting. An aliquot of the cell lysates was also assayed for […] by the Bradford method (Bio-Rad). After subtracting the radioactivity from the control blank filter discs, the data were calculated and expressed as pmol/min/mg protein.
As is well understood in the art, induction of tranglutaminase activity in the just-described assay is an early marker of retinoid like activity.

human sebocyte cultures = experiment: human sebocyte culture 3H-thymidine incorporation (DNA synthesis, anti-proliferative effect); type: cell-based; settings: human sebocytes, 8 days treatment, FIG. 2
Excerpt: The retinoid like activity of the compounds used in accordance with the method of treatment of the present invention and of the novel compounds of the invention can be confirmed by several assay procedures. An assay involving human sebocyte cultures measures the inhibition of ^3H-thymidine into cells, and thus measures inhibition of DNA synthesis and thus an anti-proliferative effect on sebocyte (i.e. a sebostatic effect). This assay is also considered a specific assay for effectiveness of a compound as a potential anti-acne drug. The test is conducted as follows.
Face-lift or forehead reduction skins from cosmetic surgeries were used as sources of human sebaceous gland cells (sebocytes).
Isolated sebocytes were plated in type 1 collagen coated-dishes in DMEM/F12 (1:1) medium supplemented with 8% fetal bovine serum, 2% human serum, 10 ng/ml epidermal growth factor, 1 nM cholera toxin, 1 μM hydrocortisone, and penicillin/streptomycin/amphotericin B. Secondary cultures were prepared by plating Dispase dissociated cells in collagen coated 24-well plates.
Sub-confluent secondary cultures were treated with the test compounds or ethanol vehicle every 2-3 days for 8 days in the above medium from which the total serum concentration was reduced to 2% and hydrocortisone was not included. During the last 6 hours of treatment, the cultures were labeled with 2 μCi/ml ^3H-thymidine. DNA from the cells were extracted by thichoroacetic acid and perchloric acid, and assayed for radioactivity by scintillation counting and for content of DNA by the diphenylamine calorimetric method. The results were expressed as CPM/μg DNA, or as per cent of vehicle control which incorporated about 1,000-1,500 cpm/μg DNA.

[2] = pharmacokinetic study, drug concentration in maternal plasma and embryo after oral intubation; type: in vivo; settings: mice, 10mg/kg dose, FIG. 1
Procedure: FIG. 1 is a graph showing the concentration of compound AGN 191701 in nanograms per ml, or nanograms per gram as indicated on the chart, in the plasma and embryo of mice at various times after oral intubation of a single dose of 10 mg/kg of the compound.
In contrast, the teratogenecity of prior art compound AGN 191183 is so high that even an undetectably low concentration of the drug already causes defective embryos.

[3] = test system: limb bud mesenchymal cells; experiment: inhibition of chondrogenesis in high-density spot cultures of limb bud mesenchymal cells; type: cell-based; settings: Mus musculus; limb bud mesenchymal cell spot cultures, terminated 96 hours after plating; read-out: IC50 (concentration which inhibited chondrogenesis by 50%)
Excerpt: In an in vitro bioassay which measures inhibition of chondrogenesis (bone formation) in […] as a classic measure of teratogenecity the results shown in Table 2 were obtained. The assay is described as follows:
High-density “spot” cultures of limb bud mesenchymal cells were used to compare the ability of various concentrations of test drugs to suppress chondrogenic differentiation as a bioassay. Forelimb buds of mouse embryos on day 12 of gestation (54±2 somites) were dissociated in a trypsin-EDTA solution, and the resultant single-cell suspension was plated as 20-μl spots (200,000 cells/spot) on plastic culture dishes. Retinoid concentrations ranging from 0.3 ng/ml to 3 μg/ml (1 nM-10 μM) were added to the culture medium (Eagle's MEM+10% fetal bovine serum, GIBCO) 24 hours after initial plating. […]
The cultures were terminated 96 hours after plating, at which time the medium was removed and the cells were fixed for 1 hour in 10% formalin containing 0.5% cetylpyridinium chloride. The cultures were rinsed in acetic acid and stained for 1 hour in 0.5% Alcian blue solution at pH 1.0, differentiated in 3% acetic acid, and then dehydrated in ethanol and scored for chondrogenesis under the microscope. […] The number of cartilage nodules stained in the whole spot, mean number of nodules, and standard deviations were calculated for four replicate cultures per treatment. […]

[4] = single oral dose 1 mg/kg, day 11 of gestation, ICR mice
[5] = single oral dose 10 mg/kg, day 11 of gestation, ICR mice
[6] = single oral dose 100 mg/kg, day 11 of gestation, ICR mice
[7] = daily dose 75 nanomoles topical
[8] = daily dose 124 nanomoles topical
[9] = daily dose 1240 nanomoles topical
[10] = female, ICR, mouse, in vivo, po, 1 mg/kg, 17 day of gestation
[11] = female, ICR, mouse, in vivo, po, 10 mg/kg, 17 day of gestation
[12] = female, ICR, mouse, in vivo, po, 100 mg/kg, 17 day of gestation

Structure (SMILES): CCOC(=O)c1ccc(/C=C(\C)c2cc3c(cc2C)C(C)(C)CCC3(C)C)cc1 [AGN191422, Ethyl 4-[(E)-2-(5,6,7,8-Tetrahydro-3,5,5,8,8-pentamethylnaphthalen-2-yl)propen-1-yl]benzoate]
- Death/Total (female hairless mice; daily dose 60 nanomoles topical): 0/5
- Death/Total (female hairless mice; daily dose 64 nanomoles topical): 0/5

Structure (SMILES): CCOC(=O)c1ccc(/C=C(\C)c2cc(C(C)(C)C)ccc2C)cc1 [AGN191544, Ethyl 4-[(E)-2-(2-Methyl-5-tert-butylphenyl)propen-1-yl]benzoate]
- Death/Total (female hairless mice; daily dose 800 nanomoles topical): 0/5

Structure (SMILES): CCOC(=O)c1ccc(/C=C(\C)c2cc3c(cc2C)OC(C)(C)CC3(C)C)cc1 [AGN191549, Ethyl 4-[(E)-2-(2,2,4,4,7-Pentamethyl-chroman-6-yl)propen-1-yl]-benzoate]
- Death/Total (female hairless mice; daily dose 300 nanomoles topical): 0/5

Structure (SMILES): C/C(=C\c1ccc(C(=O)O)cc1)c1cc2c(cc1C)C(C)(C)CCC2(C)C [AGN 191440]
- times less teratogenic than AGN 191183 (gestating ICR mice; comparison of doses producing teratogenic effects in ICR mice): approximately 100 times
- # Litters Normal (gestating ICR mice; [4]): 5
- Teratogenic Effects % Cleft Palate (gestating ICR mice; [4]): 13%
- Teratogenic Effects % Limb Defects (gestating ICR mice; [4]): 17%
- Teratogenic Effects % Resorbed (gestating ICR mice; [4]): 19%
- # Litters Normal (gestating ICR mice; [5]): 1
- Teratogenic Effects % Cleft Palate (gestating ICR mice; [5]): 88%
- Teratogenic Effects % Limb Defects (gestating ICR mice; [5]): 75%
- Teratogenic Effects % Resorbed (gestating ICR mice; [5]): 2%
- # Litters Normal (gestating ICR mice; [6]): 0
- Teratogenic Effects % Resorbed (gestating ICR mice; [6]): 100%
- induction of transglutaminase activity [1]: active
- Death/Total (female hairless mice; [7]): 0/5
- % Weight Change (female hairless mice; [7]): 3.1%
- Flaking/scaling grade (female hairless mice; [7]): +2 (Slight (˜25% or less))
- Death/Total (female hairless mice; [8]): 0/5
- % Weight Change (female hairless mice; [8]): −2.7%
- Flaking/scaling grade (female hairless mice; [8]): +2 (Slight (˜25% or less))
- Death/Total (female hairless mice; [9]): 3/5
- % Weight Change (female hairless mice; [9]): −19.5%
- Flaking/scaling grade (female hairless mice; [9]): +4 (Moderate (greater than ˜50%, less than ˜75%))

Structure (SMILES): C/C(=C\c1ccc(C(=O)O)cc1)c1cc2c(cc1Cl)C(C)(C)CCC2(C)C [AGN 191642, 4[(E)-2-(3-Chloro-5,6,7,8-tetrahydro-5,5,8,8-tetramethylnaphthalen-2-yl)propen-1-yl]benzoic Acid]
- induction of transglutaminase activity [1]: active

Structure (SMILES): C/C(=C\c1ccc(C(=O)O)s1)c1cc2c(cc1C)C(C)(C)CCC2(C)C [AGN 191659, 5-[(E)-2-(5,6,7,8-Tetrahydro-3,5,5,8-pentamethylnaphthalen-2-yl)propen-1-yl]-2-thiophenecarboxylic Acid]
- inhibition of 3H-thymidine incorporation (effectiveness in sebocyte assay) (human sebocyte cultures): effective
- induction of transglutaminase activity [1]: active

Structure (SMILES): C/C(=C\c1cc(C(=O)O)cs1)c1cc2c(cc1C)C(C)(C)CCC2(C)C [AGN 191701, 2-[(E)-2-(5,6,7,8-Tetrahydro-3,5,5,8,8-pentamethylnaphthalen-2-yl)propen-1-yl]thiophene-4-carboxylic Acid]
- inhibition of 3H-thymidine incorporation (effectiveness in sebocyte assay) (human sebocyte cultures): effective
- concentration of the drug in the maternal plasma and in the embryo [2]: present in substantial concentration
- times less teratogenic than AGN 191183 (gestating ICR mice; female, ICR, mouse, in vivo, 17 day of gestation): approximately 10^4 times
- # Litters Normal (gestating ICR mice; [10]): 1
- Teratogenic Effects % Cleft Palate (gestating ICR mice; [10]): 0%
- Teratogenic Effects % Limb Defects (gestating ICR mice; [10]): 0%
- Teratogenic Effects % Resorbed (gestating ICR mice; [10]): 18%
- # Litters Normal (gestating ICR mice; [11]): 3
- Teratogenic Effects % Cleft Palate (gestating ICR mice; [11]): 0%
- Teratogenic Effects % Limb Defects (gestating ICR mice; [11]): 0%
- Teratogenic Effects % Resorbed (gestating ICR mice; [11]): 14%
- # Litters Normal (gestating ICR mice; [12]): 2
- Teratogenic Effects % Cleft Palate (gestating ICR mice; [12]): 19%
- Teratogenic Effects % Limb Defects (gestating ICR mice; [12]): 22%
- Teratogenic Effects % Resorbed (gestating ICR mice; [12]): 2%
- teratogenic effect (in words) (gestating ICR mice; mouse, in vivo): very little teratogeneic effect
- IC50 [3]: 19 µg/mL (≈ 51.6 µM)
- induction of transglutaminase activity [1]: active

From patent publication US6624188B1, “Method of treatment with compounds having retinoid-like activity and reduced skin toxicity and lacking teratogenic effects” (Allergan, Inc., priority 1992, dated 2003)
